Measurements: paper PMC3569853 (European journal of medicinal chemistry, 2012)
Where two headings read alike, the source gives them in different places.

Experiments:
[1] = target: δ-opioid receptor (hDOR-CHO cells) (Homo sapiens, UniProt P41143); assay: Opioid receptor binding assay, δ; conditions: for δ~ μ: selectivity ratio Ki δ / Ki μ
[2] = target: κ-opioid receptor (hKOR-CHO cells) (Homo sapiens, UniProt P41145); assay: Opioid receptor binding assay, κ; conditions: for Ki: [3H]-U69,593, CHO hKOR cells, full binding assay, ±SD; for κ/μ: selectivity ratio Ki κ / Ki μ
Sequence of κ-opioid receptor (hKOR-CHO cells) (P41145 whole entry): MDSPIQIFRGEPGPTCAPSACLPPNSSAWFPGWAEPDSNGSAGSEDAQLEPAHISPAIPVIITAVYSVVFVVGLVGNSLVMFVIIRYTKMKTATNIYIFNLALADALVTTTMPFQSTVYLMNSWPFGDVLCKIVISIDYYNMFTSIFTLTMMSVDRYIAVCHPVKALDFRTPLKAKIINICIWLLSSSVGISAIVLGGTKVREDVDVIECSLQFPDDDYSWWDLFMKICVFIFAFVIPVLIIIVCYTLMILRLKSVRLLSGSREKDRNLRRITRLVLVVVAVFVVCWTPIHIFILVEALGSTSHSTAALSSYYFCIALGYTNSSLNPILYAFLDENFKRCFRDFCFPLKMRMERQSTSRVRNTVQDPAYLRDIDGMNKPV

[3] = target: T1, μ-opioid receptor (hMOR-CHO cells) (Homo sapiens, UniProt P35372); assay: biochemical; assay type: binding
T1 sequence (P35372 whole entry): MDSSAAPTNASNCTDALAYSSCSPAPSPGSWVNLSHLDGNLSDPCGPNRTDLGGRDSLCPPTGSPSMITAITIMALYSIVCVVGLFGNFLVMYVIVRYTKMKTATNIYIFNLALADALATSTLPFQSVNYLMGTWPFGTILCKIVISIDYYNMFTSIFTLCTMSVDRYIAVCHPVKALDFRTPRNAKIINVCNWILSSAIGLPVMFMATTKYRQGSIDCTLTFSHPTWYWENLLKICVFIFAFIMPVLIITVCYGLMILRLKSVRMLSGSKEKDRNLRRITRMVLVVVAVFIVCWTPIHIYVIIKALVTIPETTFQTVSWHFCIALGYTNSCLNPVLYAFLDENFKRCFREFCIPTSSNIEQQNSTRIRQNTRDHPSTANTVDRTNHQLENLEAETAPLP

[4] = target: T1, μ-opioid receptor (hMOR-CHO cells); assay: Initial binding screen, estimated Ki; conditions: read-out: estimated Ki (μ)
[5] = target: T1, μ-opioid receptor (hMOR-CHO cells); assay: biochemical
[6] = read-out: Ki δ, [3H]-DADLE, CHO hDOR cells, full binding assay, ±SD

Sequence of δ-opioid receptor (hDOR-CHO cells) (P41143 whole entry): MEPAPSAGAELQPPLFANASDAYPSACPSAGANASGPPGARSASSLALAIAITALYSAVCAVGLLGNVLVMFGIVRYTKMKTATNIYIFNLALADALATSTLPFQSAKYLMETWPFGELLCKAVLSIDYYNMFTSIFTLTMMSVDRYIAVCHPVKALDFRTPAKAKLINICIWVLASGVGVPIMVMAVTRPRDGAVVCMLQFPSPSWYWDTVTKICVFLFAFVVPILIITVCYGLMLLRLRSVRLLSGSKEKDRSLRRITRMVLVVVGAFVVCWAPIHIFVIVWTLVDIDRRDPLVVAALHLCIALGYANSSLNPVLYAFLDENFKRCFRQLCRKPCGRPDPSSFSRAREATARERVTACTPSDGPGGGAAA

Row | Compound | Ki [1, 6] [µM] | δ~ μ [1] | Ki ([2]; read-out: Ki κ) [µM] | κ/μ [2] | Ki ([3]; read-out: Ki μ) [µM] | potency estimated from few doses [4] [µM] | Kb [5] [µM] | Ki [1] [µM] | Ki ([2]; Ki κ) [µM] | Ki ([3]; Ki μ) [µM] | Ke μ [5] [nM]
1 | 13-phenethyl-2,3,4,9,10,10a-hexahydro-1H-1,4a-(epiminoethano)-phenanthrene-6,9α-diol [Compound 22] | > 10 | 139 | 1.81 ± 0.095 | 25 | 0.072 ± 0.01 | – | – | – | – | – | –
2 | O=C1CC2C3CCCC2(CCN3CCc2ccccc2)c2cc(O)ccc21 (stereo not drawn) [Compound 18, 6-hydroxy-13-phenethyl-3,4,10,10a-tetrahydro-1H-1,4a-(epiminoethano)phenanthren-9(2H)-one] | – | – | – | – | – | 0.08 | – | – | – | – | –
3 | Oc1ccc2c(c1)C13CCCC(C1C=C2)N(CCc1ccccc1)CC3 (stereo not drawn) [Compound 23, 13-phenethyl-2,3,4,10a-tetrahydro-1H-1,4a-(epiminoethano)phenanthren-6-ol] | – | 49 | – | 20 | – | – | 0.00034 ± 7e-05 | 0.127 ± 0.031 | 0.051 ± 0.004 | 0.0026 ± 0.00035 | –
4 | 13-phenethyl-2,3,4,9,10,10a-hexahydro-1H-1,4a-(epiminoethano)-phenanthrene-8,9α-diol [Compound 12] | > 10 | 714 | 0.525 ± 0.039 | 38 | 0.014 ± 0.002 | – | – | – | – | – | 6 ± 1
5 | CN1CCC23CCCC1C2C=Cc1c(O)cccc13 (stereo not drawn) [Compound 14, 13-methyl-2,3,4,10a-tetrahydro-1H-1,4a-(epiminoethano)phenanthren-8-ol] | – | 149 | – | 58 | – | – | – | > 10 | 3.89 ± 0.441 | 0.067 ± 0.007 | –
6 | Oc1cccc2c1CCC1C3CCCC21CCN3CCc1ccccc1 (stereo not drawn) [Compound 17, 13-phenethyl-2,3,4,9,10,10a-hexahydro-1H-1,4a-(epiminoethano)phenanthrene-8-ol] | – | 135 | – | 42 | – | – | 0.007 ± 0.0018 | 2.83 ± 0.223 | 0.873 ± 0.101 | 0.021 ± 0.005 | –
7 | 13-phenethyl-2,3,4,9,10,10a-hexahydro-1H-1,4a-(epiminoethano)phenanthrene-8,9β-diol [Compound 13] | > 10 | 56 | 0.923 ± 0.032 | 5 | – | – | – | – | – | – | –
8 | O=C1CC2C3CCCC2(CCN3CCc2ccccc2)c2cccc(O)c21 (stereo not drawn) [Compound 9, 8-hydroxy-13-phenethyl-3,4,10,10a-tetrahydro-1H-1,4a-(epiminoethano)phenanthren-9(2H)-one] | – | – | – | – | – | 0.297 | – | – | – | – | –
9 | Oc1ccc2c(c1)C13CCCC(C1CC2)N(CCc1ccccc1)CC3 (stereo not drawn) [Compound 24, 13-phenethyl-2,3,4,9,10,10a-hexahydro-1H-1,4a-(epiminoethano)phenanthren-6-ol] | – | 81 | – | 27 | – | – | 0.00071 ± 0.00013 | 0.186 ± 0.025 | 0.061 ± 0.006 | 0.0023 ± 0.0002 | –
10 | CN1CCC23CCCC1C2C=Cc1ccc(O)cc13 (stereo not drawn) [Compound 20, 13-methyl-2,3,4,10a-tetrahydro-1H-1,4a-(epiminoethano)phenanthren-6-ol] | – | 175 | – | 71 | – | 0.067 | – | > 10 | 4.04 ± 0.363 | 0.057 ± 0.006 | –
11 | Oc1cccc2c1C=CC1C3CCCC21CCN3CCc1ccccc1 (stereo not drawn) [Compound 16, 13-phenethyl-2,3,4,10a-tetrahydro-1H-1,4a-(epiminoethano)phenanthren-8-ol] | – | 97 | – | 19 | – | – | 0.0017 ± 0.00026 | 1.84 ± 0.212 | 0.369 ± 0.026 | 0.019 ± 0.004 | –
12 | 13-methyl-2,3,4,9,10,10a-hexahydro-1H-1,4a-(epiminoethano)-phenanthrene-8,9α-diol [Compound 10] | 3.22 ± 0.332 | 107 | 2.02 ± 0.169 | – | 0.03 ± 0.006 | – | – | – | – | – | 706 ± 135
